≈ marks a conversion by molar mass, not a printed value.
Columns and labels:
L1210 cells = assay: Cytotoxic activity against L1210 cells; type: cell-based; settings: Mus musculus; L1210 cells, 48 hours, 37° C.; read-out: ED50, cytotoxic activity against L1210
Method: To obtain L1210 cells in a logarithmic phase for cytotoxic activity test, in a 250 ml Erlenmeyer flask with a screw cap including Fisher medium warmed to 36° to 37° C. L1210 cells were adjusted to a concentration of 2-3×10^5 cells/ml and then cultured, before 24 hours from the beginning of experiment. Then, the culture solution thus obtained was suspended to prepare a L1210 cell suspension having a concentration of about 0.8-1.0×10^6 cells/ml. Test sample was dissoved in ethanol or dimethylsulfoxide in a certain concentration just before the experiment. 0.1 ml of the sample solution was diluted 10 times with 0.9 ml of a fresh medium. To each screw-capped test tube were added 100, 50, 25 μl, respectively, of the sample dilutions and then added 5 ml of the cell suspension (5×10^4 cells/ml) prepared above to use as the test group. To the test tubes for the control group (2√n: n=number of the samples), only 5 ml of the cell suspension was added. All test tubes were cultured for 48 hours in a CO2 incubator at 37° C. and then the number of cells was counted using a haemacytometer.
(§1) The ED50 value is defined as a concentration (μg/ml) of the sample which inhibits the growth of cancer cells by 50% of the control group and determined according to a method described in NIC's mannual (NIC=National Cancer Institue, U.S.A.). The growth rate Y(%) of cells in the presence of the test sample in each concentration was calculated according to the followign equation: […]
(§2) In the above equation, T means the average cell number per ml in the test group after incubation for 48 hours in the presence of the test samples in each concentration, C means the average cell number per ml in the control group after incubation for 48 hours, and Co means the average cell number per ml in the control group at the beginning of incubation. The Y(%) value at each concentration and log10 value of each concentration were obtained and the regression curve was constructed according to the following equation from those obtained values. In this case, when all the Y(%) value obtained at each concentration is greater than 55% or lower than 45%, the experiment was repeatedly conducted.
(§3) To construct the regression curve Y=A+BX the values A and B were obtained using the following equation. [formula]
(§4) In the above, the value N is the number of selected points which is greater than 2 and lower than, or identical with, the number of cencentration of the test sample, Xi is log(concentration) i, and Yi is the growth ratio at (concentration)i. The value of ED50 was obtained for those obtained slope and intercept.

K-562 cells = assay: Cytotoxic activity against K-562 cells; type: cell-based; settings: Homo sapiens; K562 cells, 48 hours, 37° C.; read-out: ED50, cytotoxic activity against K562
Method: As in the test for the cytotoxic activity against L1210 cells, the test samples were dissoved in ethanol or dimethylsulfoxide in a certain concentration. 0.1 ml of the sample solution was mixed with 0.9 ml of a fresh medium to prepare the dilutions. To each two test tubes having a screw cap were added 100, 50, 25 μl, respectively, of the sample dilutions by means of a micropipet. To each test tube for the test group and the control group (2√n: n=number of the samples) was added 5 ml of the dilutions of HL-60 cells and K-562 cells which were cultured and activated before 24 hours from the beginning of experiment and then diluted in a concentration of 1×10^5 cells/mi. All test tubes were cultured for 48 hours in a CO2 incubator at 37° C. and then the number of cells was counted using a haemacytometer.
as §1, §2, §3, §4

A549 cancer cells = assay: Cytotoxic activity against A549 cancer cells (sulforhodamin B method); type: cell-based; settings: Homo sapiens; A549 cells, SRB method, 48 hours; read-out: ED50, cytotoxic activity against A549
Method: The cytotoxic activity against A549 cancer cells was determined using a method for measuring sulforhodamin B (SRB), which was developed in the year 1989 by NIC for measuring anticancer activity of the drug in vitro. For the experiment, cells under subculturing were separated from the attached surface with trypsin-CDTA solution and then dispensed into a 24-well flat-bottom microplate (Falcon) so that the number of cells per well is 8×10^4 (A549). The microplate was incubated in a CO2 incubator for 24 hours to attach the dispensed cells to bottom. The medium was removed with aspirator. Then, 100 μl of the solution of the test compounds diluted in a log-dose of 6 kinds of concentration was added to each well containing cells, in a multiple of 3. The microplate was incubated for further 48 hours. In addition, the diluted solution of the test compounds above was filtered through a 0.22 μm filter, before addition to the cells, to keep the experiment under sterilized condition. The cells were incubated with the test compounds for 48 hours and then the medium was removed from each well. 100 μl of 10% trichloroacetic acid (TCA) was added to each well and then the plate was allowed to stand at 4° C. for one hour to fix the cells to the bottom of plate. After fixing the cells, the plate was washed 5 to 6 times with water to completely remove any remaining TCA solution and then dried at room temperature until water is no longer present. To the completely dried plate was added the dying solution of 0.4% SRB dissolved in 1% acetic acid in an amount of 250 μl per well to stain the cells for 30 minutes and then the plate was washed again 5 to 6 times with 1% acetic acid solution to remove the remaining SRB which is not bound to the cells. The stained cell plate was dried again at room temperature. Then, the dying solution was carefully dissolved in a certain amount of 10 mM Tris so that the O.D. value in the control group at 520 nm is 0.8-1.0 Å (optical density), and the optical density at 520nm was determined. The ED50 value was obtained from the determined optical density. To calculate the activity of the drug against cancer cells, the number of cells (Tz) at the beginning of the addition of drug, the number of cells (C) after incubation with the medium in the absence of drug for 48 hours and the number of cells (T) after incubation in the presence of drugs at each concentration for 48 hours were determined.
The anticancer activity of the test compounds was determined form the following equations. Specifically, in the […] the equation (T-Tz)/(C-Tz)×100 was used and in the case of Tz<T the equation (T-Tz)/Tz×100 was used. Then the IC50 value wich is the concentration of drug which inhibits the growth of cancer cells by 50% was calcualted from the above calculated values using a data regressive function of LOTUS programme and the cytotoxic activities of the test compounds were compared with each other.

S-180 sarcoma cells = assay: Animal experiment using Sarcoma S-180 cells (survival of mouse); type: in vivo, male ICR mouse; settings: ip, S-180 ICR mouse, comparative drug, 0.5 mg/kg/day (1.2 μmole)
Method: In this experiment, healthy male ICR mouse weighing 20 to 25 g were used as test animal and were fed with water and feed without any restriction in the chamber controlled at the temperature of 23° to 24° C. As the feed, the antibiotic-free feed for mouse was used.
S-180 cells which were incubated for 7 days within abdominal cavity of ICR mouse were separated together with ascites. To the separated cells was added sterilized cold physiological saline and the mixture was centrifuged with 400×g for 2 minutes to separate the cell precipitate. The separated cell precipitate was suspended again in sterilized cold physiological saline and then centrifuged to remove the supernatant. Only S-180 cells were taken, excluding any red bllod cells incorporated therein, washed three times with the same method as above, and then suspended to obtain the cell suspension in concentration of 10^7 cells/ml by counting the number of cells with a haemacytometer. Each 0.1 ml of this cell suspension was transplanted in an abdominal cavity.
After 24 hours from the transplantation, mouse were divided so that each group contains 8 to 9 mouse. The test sample was dissolved in a predetermined amount of dimethylsulfoxide to prepare the stock solution which was stored at 4° C. 30 μl of the stock solution was taken and then mixed with 1.5 ml of physiological saline. 0.1 ml of this mixture was intraperitoneally injected to the test animal. To the control group, 2% dimethylsulfoxide-physiological saline solution was injected. Meanwhile, doxorubicin which is used as the comparative drug was dissolved in 2% dimethylsulfoxide-physiological saline solution and then injected in an amount of 0.5 mg(titer)/kg. The schedule for injection comprises a total of 7 to 8 injections in the manner that after the transplantation of cancer cells 0.1 ml of the test sample per a day is administered for 2 to 4 days followed by the rest for one day. The survival rate was calculated on the basis of the date on which all of one control group is died (approximately 18 to 20 days). The survival rate (T/C, %) was calculated by the following equation as proposed in NIC's protocol: [formula]

| SMILES | IC50 (L1210 cells) [µg/mL] | IC50 (K-562 cells) [µg/mL] | IC50 (A549 cancer cells) [µg/mL] | responders at 0.5 mg/kg/day (S-180 sarcoma cells; 1200 h, read-out: Number of mouse survived for 50 days (converted)) [%] | response vs control in vivo at 0.5 mg/kg/day (S-180 sarcoma cells; read-out: T/C) [%] |
| --- | --- | --- | --- | --- | --- |
| CCCCCCCCCCCCC(OC(=O)CCC)C1=CC(=O)c2c(O)ccc(O)c2C1=O (centres unmarked) [2-(1-butanoyloxytridecyl)-5,8-dihydroxy-1,4-naphthoquinone] | 0.6 (≈ 1.31 µM) | 2.7 (≈ 5.89 µM) | > 20 |  |  |
| CCCCCCCCCCCCOC(CCC(C)C)C1=CC(=O)c2c(O)ccc(O)c2C1=O (centres unmarked) [2-(1-dodecyloxy-4-methylpentyl)-5,8-dihydroxy-1,4-naphthoquinone] | > 20 | > 20 | > 20 |  |  |
| CCCCCCCCCCCCOC(CCC(C)C)C1=CC(=O)c2c(OC)ccc(OC)c2C1=O (centres unmarked) [2-(1-dodecyloxy-4-methylpentyl)-5,8-dimethoxy-1,4-naphthoquinone] | 6.3 (≈ 12.9 µM) | 3.7 (≈ 7.6 µM) | 4.8 (≈ 9.86 µM) |  |  |
| CCOC(CCC(C)C)C1=CC(=O)c2c(OC)ccc(OC)c2C1=O (centres unmarked) [2-(1-ethoxy-4-methylpentyl)-5,8-dimethoxy-1,4-naphthoquinone] | 0.01 (≈ 0.0289 µM) | 1.5 (≈ 4.33 µM) | 3 (≈ 8.66 µM) |  |  |
| CCCCCCCOC(CCC(C)C)C1=CC(=O)c2c(O)ccc(O)c2C1=O (centres unmarked) [2-(1-heptyloxy-4-methylpentyl)-5,8-dihydroxy-1,4-naphthoquinone] | 0.8 (≈ 2.06 µM) | 0.2 (≈ 0.515 µM) | 2.4 (≈ 6.18 µM) |  |  |
| CCCCCCCOC(CCC(C)C)C1=CC(=O)c2c(OC)ccc(OC)c2C1=O (centres unmarked) [2-(1-heptyloxy-4-methylpentyl)-5,8-dimethoxy-1,4-naphthoquinone] | 3.1 (≈ 7.44 µM) | 6.4 (≈ 15.4 µM) | 4.7 (≈ 11.3 µM) |  |  |
| CCCCCCCCCC(OC(=O)CCCCC)C1=CC(=O)c2c(O)ccc(O)c2C1=O (centres unmarked) [2-(1-hexanoyloxydecyl)-5,8-dihydroxy-1,4-naphthoquinone] | 0.5 (≈ 1.12 µM) | 1.1 (≈ 2.47 µM) | 13 (≈ 29.2 µM) |  |  |
| CCCCCCCCCCCCC(OC(=O)CCCCC)C1=CC(=O)c2c(O)ccc(O)c2C1=O (centres unmarked) [2-(1-hexanoyloxytridecyl)-5,8-dihydroxy-1,4-naphthoquinone] | 1.5 (≈ 3.08 µM) | > 20 | > 20 |  |  |
| CCCCCCCCCC(O)C1=CC(=O)c2c(O)ccc(O)c2C1=O (centres unmarked) [2-(1-hydroxydecyl)-5,8-dihydroxy-1,4-naphthoquinone] | 0.1 (≈ 0.289 µM) | 0.3 (≈ 0.866 µM) | 0.5 (≈ 1.44 µM) |  |  |
| CCCCCCCCCC(O)C1=CC(=O)c2c(OC)ccc(OC)c2C1=O (centres unmarked) [2-(1-hydroxydecyl)-5,8-dimethoxy-1,4-naphthoquinone] | 1.4 (≈ 3.74 µM) | 1.6 (≈ 4.27 µM) | 9.2 (≈ 24.6 µM) |  |  |
| CCCCCC(O)C1=CC(=O)c2c(O)ccc(O)c2C1=O (centres unmarked) [2-(1-hydroxyhexyl)-5,8-dihydroxy-1,4-naphthoquinone] | 0.03 (≈ 0.103 µM) | 0.02 (≈ 0.0689 µM) | 1.1 (≈ 3.79 µM) |  |  |
| CCCCCC(O)C1=CC(=O)c2c(OC)ccc(OC)c2C1=O (centres unmarked) [2-(1-hydroxyhexyl)-5,8-dimethoxy-1,4-naphthoquinone] | 0.3 (≈ 0.942 µM) | 0.6 (≈ 1.88 µM) | 0.9 (≈ 2.83 µM) |  |  |
| CCCCCCCC(O)C1=CC(=O)c2c(O)ccc(O)c2C1=O (centres unmarked) [2-(1-hydroxyoctyl)-5,8-dihydroxy-1,4-naphthoquinone] | 0.07 (≈ 0.22 µM) | 0.2 (≈ 0.628 µM) | 0.4 (≈ 1.26 µM) |  |  |
| CCCCCCCC(O)C1=CC(=O)c2c(OC)ccc(OC)c2C1=O (centres unmarked) [2-(1-hydroxyoctyl)-5,8-dimethoxy-1,4-naphthoquinone] | 1 (≈ 2.89 µM) | 2.1 (≈ 6.06 µM) | 7.5 (≈ 21.6 µM) |  |  |
| CCCCC(O)C1=CC(=O)c2c(O)ccc(O)c2C1=O (centres unmarked) [2-(1-hydroxypentyl)-5,8-dihydroxy-1,4-naphthoquinone] | 0.04 (≈ 0.145 µM) | 0.08 (≈ 0.29 µM) | 0.5 (≈ 1.81 µM) |  |  |
| CCCCC(O)C1=CC(=O)c2c(OC)ccc(OC)c2C1=O (centres unmarked) [2-(1-hydroxypentyl)-5,8-dimethoxy-1,4-naphthoquinone] | 0.1 (≈ 0.329 µM) | 1.1 (≈ 3.61 µM) | 6.4 (≈ 21 µM) |  |  |
| COc1cccc2c1C(=O)c1c(O)c3c(c(O)c1C2=O)C[C@@](O)(C(=O)CO)C[C@@H]3O[C@H]1C[C@H](N)[C@H](O)[C@H](C)O1 [Doxorubicin, reference compound] |  |  |  | 44.4 | 230 |
